# Assay results as given in PubChem BioAssay (NCI).
#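 Grown in 96-well plates, cells were treated for 48 hours with each compound at five concentrations. Insufficient inhibition: endpoint recorded as highest concentration tested. Abbreviation: GI50, concentration required for 50% inhibition of growth. TGI marks complete inhibition of growth.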
# Tests used:
# Test in all cases: NCI anticancer screen, dose series, 48 h
# [1] = tested on: A498 renal
# [2] = tested on: ACHN renal
# [3] = tested on: CCRF-CEM leukemia
# [4] = tested on: HCT-116 colon
# [5] = tested on: IGROV1 ovarian
# [6] = tested on: K-562 leukemia
# [7] = tested on: NCI-H522 lung
# [8] = tested on: UACC-257 melanoma
# [9] = tested on: RXF 393 renal
SMILES,TGI [1] [µM],TGI [2] [µM],TGI [3] [µM],TGI [4] [µM],TGI [5] [µM],TGI [6] [µM],TGI [7] [µM],TGI [8] [µM],GI50 [1] [µM],GI50 [3] [µM],GI50 [4] [µM],GI50 [5] [µM],GI50 [9] [µM],TGI [9] [µM],GI50 [2] [µM],GI50 [7] [µM],GI50 [8] [µM],GI50 [6] [µM]
CCCCC(C(=O)C(=O)Nc1ccccc1CC)C(=O)C(C)C (stereo not given),> 100,> 100,> 100,> 100,> 100,> 100,> 100,> 100,,,,,,,,,,
O=C(O)c1cn(C2CC2)c2cc(N3CCN(C(=O)N(c4ccccc4)c4nc(-c5ccccc5)cs4)CC3)c(F)cc2c1=O,0.688,,> 100,> 100,> 100,,,,0.028,0.276,0.351,0.393,0.272,1.49,,,,
COc1ccc(C(C)Nc2cc(OC)c(OC)c(OC)c2)cc1 (stereo not given),> 100,> 100,> 100,> 46.2,> 100,> 45,17.6,> 100,,,,,,20.9,,,,
c1cc(OCCCCCOc2cccc(-c3nc4ccccc4[nH]3)c2)cc(-c2nc3ccccc3[nH]2)c1,7.91,46.2,,> 100,> 100,,> 100,7.85,2.61,,2.07,0.324,,,2.35,2.48,2.87,
CC(C)CCCC(C)C1CCC2C3CC([N+](=O)[O-])=C4CC(O)CCC4(C)C3CCC12C (stereo not given),40.6,> 100,42.9,28.9,50.1,36.8,33.6,37.5,,,,,,50.9,,,,
ON1CCc2c([nH]c3ccccc23)C1c1ccc(Cl)cc1 (stereo not given),> 100,> 100,93.8,15.4,,> 100,60,> 100,,,,,,60.3,,,,
COC1=CC(=O)C(O)=C(CC2(C)C(C)CCC3(C)C2CCCC3(C)C)C1=O (stereo not given),22.1,29.5,11.5,21.3,28.5,> 100,13,21.9,,,,,,7.79,,,,
CC(C)(C)c1ccc(OCCOCCOc2ccc(C(C)(C)C)cc2S(N)(=O)=O)c(S(N)(=O)=O)c1,> 100,> 100,> 100,> 100,> 100,> 100,,> 100,,,,,,> 100,,,,
CCN1CCN(CC(=O)Nc2nc3ccc(NCc4ccc(Br)cc4)cc3s2)CC1,3.46,4.4,,3.3,,,,5.14,1.76,,1.54,,1.63,3.25,2.03,,2.28,
CN(C)CCNC(=O)c1cccc2c1nc(-c1cccnc1)c1ccccc12,15.7,14.4,43.5,13.8,26.3,65.4,,16.1,,,,,,17.1,,,,
O=C(CC1(O)C(=O)Nc2c(Cl)ccc(Cl)c21)c1ccc(Cl)cc1 (stereo not given),82.5,38.7,,70.6,57.7,,,94.7,,,,,,56.8,,,,
O=C(NO)c1ccc(CNc2cccc3nc(C4CC4)n(-c4ccccc4)c(=O)c23)cc1,4.03,4.67,> 100,,3.01,> 100,3.38,4.76,1.87,1.5,,1.44,1.42,3.14,1.92,1.47,1.82,2.89
N#CC1(CCCCl)CCCCC1,> 100,> 100,> 100,> 100,> 100,,> 100,> 100,,,,,,> 100,,,,
O=[N+]([O-])c1ccc(/C=C/c2ccc(/C=C/c3ccc([N+](=O)[O-])cc3[N+](=O)[O-])cc2)c([N+](=O)[O-])c1,> 100,> 100,> 100,> 100,> 100,> 100,,> 100,,,,,,> 100,,,,
N#Cc1c(CC(=O)O)cc(=O)n2c1[nH]c1ccccc12,> 100,> 100,,> 100,> 100,> 100,,> 100,,,,,,> 100,,,,
O=C1Nc2ccc(Cl)cc2/C1=N/c1nc(-c2ccc(Cl)cc2)cs1,4.98,,> 100,2.71,,> 100,,,1.8,2.28,1.3,,,,,,,1.6
O=C(/C=C(\[O-])c1ccccc1)CCCCCCC(=O)/C=C(\[O-])c1ccccc1.O=C(/C=C(\[O-])c1ccccc1)CCCCCCC(=O)/C=C(\[O-])c1ccccc1.O=C(/C=C(\[O-])c1ccccc1)CCCCCCC(=O)/C=C(\[O-])c1ccccc1.[Y+3].[Y+3],> 50,> 50,,> 50,> 50,> 50,37.9,> 50,> 50,,14.9,> 50,11,37.4,40.3,9.86,17.6,17.7
